# Like-named read-outs stand apart in the source and are kept apart here.
# Tests used:
# [1] = system: human colon cancer cells HCT-116; assay: MTT growth inhibition of human cancer and normal cells (Part 2); format: cell-based; settings: HCT-116, 48 h, 0 to 80 μM
# Description: (§1) Growth inhibition of human cancer and normal cells. Cell growth inhibition was determined by a MTT colorimetric assay. Human colon cancer cells HCT-116, human lung cancer cells H-1299, human colon fibroblast cells CCD-18Co, and human lung fibroblast cells IMR-90 were plated in 96-well microtiter plates with 3000 cells/well and allowed to attach for 24 h at 37° C. […] After the cells were cultured for 48 h, the medium was aspirated and cells were treated with 200 μL fresh medium containing 2.41 mmol/L MTT. […] The reading reflected the number of viable cells and was expressed as a percentage of viable cells in the control. Both HCT-116 and H-1299 cells were cultured in McCoy's 5A medium. CCD-18Co and IMR-90 cells were cultured in Eagle's modified essential medium (EMEM). All of the above media were supplemented with 10% fetal bovine serum, 1% penicillin/streptomycin, and 1% glutamine, and the cells were kept in a 37° C. incubator with 95% humidity and 5% CO2.
# [2] = system: human lung cancer cells H-1299; assay: as above; format: cell-based; settings: H-1299, 48 h, 0 to 80 μM
# Description: as §1
# [3] = system: human colon fibroblast cells CCD-18Co; assay: in vitro; format: cell-based
# Description: as §1
# A549 lung cancer cells = settings: for tumor weight lower (minus % compared to DMSO-treated control): after 7 weeks; for BrdU+ cells/field in tumor tissue: control about 6.3; for TUNEL+ cells/field in tumor tissue: control about 15.5; for tumor size versus control group: 6S 30 mg/kg, M2 30 mg/kg, M14 10 mg/kg, oral gavage 5×/week
# Description: Nu/J nude mice were obtained from Jackson Laboratories (Bar Harbor, Me.). Animals were randomized into 4 groups. A549 cells (5×10^6 cells) were implanted in both flanks of 8-weeks old Nu/J mice. One week after implantation, animals were given 100 μl of the following treatments through oral gavage 5 times/week: DMSO 0.25 ml/kg (control; n=4); 6S 10 mg/kg (n=4); 6S 30 mg/kg (n=4) or M2 30 mg/kg (n=5). Compounds were diluted in a solution of 5% DMSO in corn oil. Animal body weight and tumor volume were recorded for the duration of the experiment. Tumor volume was calculated by measuring the length and width of the tumors using a digital caliper and using the formula (Length×Width^2)/2. One hour before sacrifice, mice were given one last treatment dose as well as one intra-peritoneal injection of BrdU (7.5 mg/kg in 100 μl PBS). After 7 weeks, tumor tissues were harvested and weighed. A portion of the tumors was snap frozen in liquid nitrogen and another portion was placed in a histology cassette and immersed in formalin solution.
# […] tissues were sent to Precision Histology Lab (Oklahoma City, Okla.) for embedding in paraffin blocks. Then paraffin blocks were processed into 3-4 μm sections that were then put on microscope slides. Sections were then deparaffinized by using a succession of 3 baths of xylene (5 minutes each), 2 baths of absolute ethanol (5 minutes each), 95% ethanol for 3 minutes, 70% ethanol for 3 minutes, and rinsed in PBS. Immunostaining with TUNEL (terminal deoxynucleotidyl transferase dUTP nick end labeling) and BrdU staining kits was performed following manufacturer's recommendation. For staining quantification, sequential high-power field pictures of tumors were taken (10 pictures per tumor) using an A1 Zeiss microscope (Oberkochen, Germany). Images were processed using the Image J software, which was used to count positive, brown-colored cells in each field. Average number per tumor was calculated by averaging the number obtained for each field, and the average number of positive cells per group was obtained by averaging the values of each tumor belonging to the experimental group.
# 8 week-old nude mice (Jackson Laboratory, Maine) were randomized into 5 groups based on treatment (DMSO: n=4; 6S 10 mg/kg: n=4 (“6S 10”); 6S 30 mg/kg: n=4 (“6S 30”); M2 30 mg/kg: n=5 (“M2 30”); M14 10 mg/kg: n=4 (“M14 10”)). Animals were implanted with 5×10^6 A549 lung cancer cells (adenocarcinomic human alveolar basal epithelial cells) on each flank. The mice had access to food and water ad libitum. One week post implantation, the animals started receiving their respecting treatments through oral gavage (100 μl in corn oil and 5% DMSO), 5×/week. After 7 weeks of treatment, the tumor tissues were harvested.
# HCT-116 cells = assay: Western blot analysis of apoptosis markers and p53 (Part 5); format: cell-based, human; settings: for p53 expression (Western blot): HCT-116 (p53 wild-type), 24 hours, M2, 6S 10, 20 or 40 μM, 8S, M2′, 10S, M2″ 20 μM
# Description: (§2) Cell lysates were prepared in ice-cold RIPA lysis buffer [25 mM Tris-HCl (pH 7.6), 150 mM NaCl, 1% NP-40, 1% sodium deoxycholate, 0.1% SDS, Thermo Fisher Scientific] supplemented with a protease inhibitor cocktail (AEBSF, aprotinin, bestatin, E-64, leupeptin and pepstatin A in DMSO with EDTA, Thermo Fisher Scientific). Protein content was measured by a Pierce BCA Assay Kit (Thermo Fisher Scientific). Protein contents of cell lysates (30 μg protein/lane) were resolved by SDS-PAGE. Proteins were then electro-transferred onto PVDF membranes and blots were blocked for one hour at room temperature in 1×TBS with 1% Casein (Bio-Rad Laboratories, Berkeley, Calif.). Blots were then incubated overnight at 4° C. with the desired primary antibody diluted in TBS with 0.5% Tween-20. Blots were then washed with TBS-Tween 20 and probed for 1 hour with the appropriate secondary antibody (1:1000). Protein bands were visualized with chemiluminescence using West Femto maximum detection substrate (Thermo Fisher Scientific). To confirm equal protein loading in each lane, immunoblots were stripped and re-probed for β-actin. Protein fold-induction was calculated by normalizing the intensity of the band of interest to β-actin first, and then to DMSO control lanes.
# HT-29 cells = assay: as above; format: cell-based, human; settings: for p53 expression (Western blot): HT-29 (p53 mutant), 24 hours, M2, 6S 10, 20 or 40 μM, 8S, M2′, 10S, M2″ 20 μM
# Description: as §2
# [4] = M2 30 mg/kg vs 6S 30 mg/kg, 7 weeks
SMILES,IC50 [1] [µM],IC50 [2] [µM],IC50 [3] [µM],tumor weight lower (minus % compared to DMSO-treated control) (A549 lung cancer cells; 30 mg/kg oral gavage 5×/week) [%],BrdU+ cells/field in tumor tissue (A549 lung cancer cells; 30 mg/kg) [BrdU+ cells/field],TUNEL+ cells/field in tumor tissue (A549 lung cancer cells; 30 mg/kg) [TUNEL+ cells/field],tumor size versus control group (A549 lung cancer cells; 7 weeks),p53 expression (Western blot) (HCT-116 cells),p53 expression (Western blot) (HT-29 cells),further results
"CCCCC/C=C/C(=O)CCc1ccc(O)c(OC)c1 [[6]-shogaol, reference compound]",18.2,17.9,43.9,40.8,3.4,32.6,Reduction in tumor size,dose-dependent up-regulation of p53,dose-dependent up-regulation of p53,"tumor weight lower (minus % compared to DMSO-treated control) (A549 lung cancer cells; 10 mg/kg oral gavage 5×/week, not significant): 25.6%; BrdU+ cells/field in tumor tissue (A549 lung cancer cells; 10 mg/kg): 4.7 BrdU+ cells/field; TUNEL+ cells/field in tumor tissue (A549 lung cancer cells; 10 mg/kg): 27.8 TUNEL+ cells/field"
"CCCCCC(CC(=O)CCc1ccc(O)c(OC)c1)SC[C@H](N)C(=O)O (stereo partly shown) [M2, 5-cysteinyl-[6]-shogaol]",24.4,25.8,99.2,53.7,5.7,28.6,Reduction in tumor size,dose-dependent up-regulation of p53,dose-dependent up-regulation of p53,"decrease of tumor burden relative to the equivalent 6S group (A549 lung cancer cells; [4]): 21.8%; lower tumor burden than the equivalent 6S group compared to DMSO (A549 lung cancer cells; [4]): 12.9%; changes in body weight between groups (A549 lung cancer cells; oral gavage up to 7 weeks): did not induce any significant changes in body weight; Bcl-2 levels (Western blot, vs DMSO) (HCT-116 cells; HCT-116, 40 μM): undetectable; PUMA induction (Western blot, vs DMSO) (HCT-116 cells; HCT-116, 40 μM): ~17 fold; XIAP expression (Western blot, vs DMSO) (HCT-116 cells; HCT-116, 40 μM): undetectable; cleaved caspase 9 (Western blot, vs DMSO) (HCT-116 cells; HCT-116, 40 μM): ~4.6 fold; cytochrome c release (Western blot, vs DMSO) (HCT-116 cells; HCT-116, 40 μM): ~2.2 fold; Bcl-2 levels (Western blot, vs DMSO) (HT-29 cells; HT-29, 40 μM): ~0.1 fold; PUMA induction (Western blot, vs DMSO) (HT-29 cells; HT-29, 40 μM): ~17 fold; XIAP expression (Western blot, vs DMSO) (HT-29 cells; HT-29, 40 μM): ~0.3 fold; cleaved caspase 9 (Western blot, vs DMSO) (HT-29 cells; HT-29, 40 μM): ~4.6 fold; cytochrome c release (Western blot, vs DMSO) (HT-29 cells; HT-29, 40 μM): ~2.2 fold"

# From patent publication US9549911B2, “Ginger metabolites and uses thereof” (North Carolina A&T State University, priority 2012, dated 2017)
